Values after ≈ are worked out from the molar mass of the structure shown. Read-outs that look alike come from different tables or passages of the source.
Columns and labels:
[1] = tested on: bronchospasm against acetylcholine; test: Broncholytic effect at the narcotized guinea-pig, bronchospasm by acetylcholine; format: in vivo; settings: Cavia porcellus, iv, 2 min, 2 min. i.p.; for change in vivo at 3 mg/kg: 3 mg/kg i.v.; for change in vivo at 10 mg/kg: 10 mg/kg i.v.
Experimental: (§1) 2. Broncholytic effect at the narcotized guinea-pig
(§2) This test was performed according to H. Konsett and R. Rossler ("Archiv exp. Path. Pharmak." vol. 195 (1940), page 71).

[2] = tested on: bronchospasm against histamine; test: Broncholytic effect at the narcotized guinea-pig, bronchospasm by histamine; format: in vivo; settings: for change in vivo at 3 mg/kg: 3 mg/kg i.v.; for change in vivo at 10 mg/kg: 10 mg/kg i.v.; for Broncholytic effect against histamine compared with sample 8: guinea pig, in vivo
Experimental: as §1, §2

[3] = tested on: bronchospasm against acrotonine; test: Broncholytic effect at the narcotized guinea-pig, bronchospasm by acrotonine (so in the source); format: in vivo; settings: 2 min. i.p.
Experimental: as §1, §2

[4] = tested on: human blood; test: Fibrinolytic effect in vitro, Hanging-Clot-test; format: biochemical; settings: for Minimum concentration for partial lysis / Minimum concentration for complete lysis: human blood
Experimental: This effect was measured by the Hanging-Clot-test according to K. N. von Kaulla ("Journ. med. Chem." vol. 8 (1965), page 164) in using human blood. The incubation time was 24 or 48 hours.

[5] = Toxicity in the mouse (LD50); settings: in vivo
Experimental: The toxicity was determined as LD50 --range or as LD50 according to Litchfield and Wilcoxon ("J. Pharmacol. exp. Ther." 97 (1949), page 399) in the mouse.

[6] = Solubility; format: physicochemical; settings: for solubility: water, 25° C.
[7] = tested on: cerebral blood perfusion; test: Cerebral blood perfusion by fluvography at the cat (i.v.); format: in vivo
Experimental: (§3) Animal tests were carried out with various oxoalkylxanthine derivatives, in which the toxicity in the mouse, the increase of cerebral and muscular blood perfusion at the cat and the fibrinolytic effect in vitro in the Hanging-Clot-test were measured. Furthermore the broncholytic effect of various compounds was tested.
(§4) 1. Cerebral and muscular blood perfusion by fluvography
(§5) These tests were performed at the cat according to K. Popendiker, I. Boksay and V. Bollmann ("Arzneimittel Forschung" vol. 21 (1971), page 1160).
(§6) The values obtained in the mentioned test 1 are given as Δλ and as half-life values in Table 2 and the results of tests 2 to 5 are enumerated in Table 3. In Table 2 Δλ is the change of blood perfusion.

[8] = tested on: muscular blood perfusion; test: Muscular blood perfusion by fluvography at the cat (i.v.); format: in vivo
Experimental: as §3, §4, §5, §6

[9] = tested on: isolated trancheal chain; test: Broncholytic effect at the isolated tracheal chain (isoprenaline reaction)
Experimental: 3. Broncholytic effect at the isolated trancheal chain
This test was performed according to J. C. Castillo and E. J. de Beer ("J. Pharm. Ther." vol. 90 (1947), page 104).

[10] = Cavia porcellus, iv, 2 min, 2 min. i.p., sample in propanediol
[11] = 10 mg/kg i.v., sample in propanediol, sample 1: Longtime effect (footnote 1)
[12] = ip, read-out: Toxicity (LD50-range or LD50)
[13] = 2 mg/kg i.v. vs sample 8 at 5 mg/kg
[14] = Cavia porcellus, iv, 2 min, 2 min. i.p.

Compound	Fibrinolytic effect relative to comparison sample 8 [4]	LD50 [5, 12]	Solubility in dimethyl sulphoxide [6]	Solubility in dimethylformamide [6]	Solubility in ethanol [6]	Cerebral blood perfusion half-life ([7]; 1 mg/kg i.v.)	Cerebral blood perfusion Δλ (change of blood perfusion) ([7]; 1 mg/kg i.v.)	Cerebral blood perfusion half-life ([7]; 2 mg/kg i.v.)	Cerebral blood perfusion Δλ (change of blood perfusion) ([7]; 2 mg/kg i.v.)	Muscular blood perfusion half-life ([8]; 1 mg/kg i.v.)	Muscular blood perfusion Δλ (change of blood perfusion) ([8]; 1 mg/kg i.v.)	Muscular blood perfusion Δλ (change of blood perfusion) ([8]; 2 mg/kg i.v.)	change in vivo at 10 mg/kg [1]	change in vivo at 3 mg/kg [2, 14]	change in vivo at 10 mg/kg [2, 14]	Change of the bronchospasm in % against acrotonine ([3]; 3 mg/kg i.v.)	Change of the bronchospasm in % against acrotonine ([3]; 10 mg/kg i.v.)	Cerebral blood perfusion half-life ([7]; 5 mg/kg i.v.)	Cerebral blood perfusion Δλ (change of blood perfusion) ([7]; 5 mg/kg i.v.)	Muscular blood perfusion Δλ (change of blood perfusion) ([8]; 5 mg/kg i.v.)	also measured
CCCn1c(=O)c2c(ncn2CCCCC(C)=O)n(C)c1=O [Sample 1, 1-n-Propyl-3-methyl-7-(5-oxohexyl)-xanthine]	two times as strong	100 to 250 mg/kg	over 10%	over 10%	over 10%	–	–	–	–	–	–	–	–	–	–	–	–	–	–	–	change in vivo at 3 mg/kg ([1]; sample in propanediol): -33%; change in vivo at 10 mg/kg ([1]; sample in propanediol): -55%; change in vivo at 3 mg/kg [2, 10]: -63%; change in vivo at 10 mg/kg [2, 10]: -73%; Change of the bronchospasm in % against acrotonine ([3]; 3 mg/kg i.v., sample in propanediol): -40%; Change of the bronchospasm in % against acrotonine [3, 11]: -82%; Minimum concentration for partial lysis ([4]; 24 hours incubation): 40 mmol; Minimum concentration for complete lysis ([4]; 48 hours incubation (bracket)): 20 mmol
CCCCCCn1cnc2c1c(=O)n(CCCCC(C)=O)c(=O)n2C [Example 2, 1-(5-Oxohexyl)-3-methyl-7-n-hexyl-xanthine]	–	–	over 10%	over 10%	over 10%	–	–	–	–	–	–	–	–	–	–	–	–	–	–	–	Solubility in water (in words) [6]: only sparingly soluble in water
CCCCCCn1c(=O)c2c(ncn2CCCCC(C)=O)n(C)c1=O [Sample 3, I-(n-hexyl)-3-methyl-7-(5-oxohexyl)-xanthine]	–	250 to 500 mg/kg	–	–	–	0.4 min	+0.97	7.0 min	+1.45	3.30 min	-0.05	0	-85%	-52%	-90%	-50%	-100%	–	–	–	Cerebral blood perfusion relative to comparison sample 8 [7, 13]: about two times as strong; Half-life (cerebral) relative to comparison sample 8 [7, 13]: about three times as long; Broncholytic effect against histamine compared with sample 8 [2]: improved broncholytic effect against histamine
CCCCCCCCCCn1cnc2c1c(=O)n(CCCCC(C)=O)c(=O)n2C [Sample 6, 1-(5-oxohexyl)-3-methyl-7-(n-decyl)-xanthine]	–	500 mg/kg	–	–	–	0.2 min	+1.40	–	–	–	0	–	–	–	–	–	–	–	–	–	Cerebral blood perfusion half-life ([7]; 3 mg/kg i.v.): 0.5 min; Cerebral blood perfusion Δλ (change of blood perfusion) ([7]; 3 mg/kg i.v.): +2.8; Muscular blood perfusion half-life ([8]; 3 mg/kg i.v.): 4.00 min; Muscular blood perfusion Δλ (change of blood perfusion) ([8]; 3 mg/kg i.v.): +0.30; change in vivo at 10 mg/kg ([1]; sample in propanediol): -50%; change in vivo at 10 mg/kg [2, 10]: -40%; Change of the bronchospasm in % against acrotonine [3, 11]: -50%
CCn1cnc2c1c(=O)n(CCCCC(C)=O)c(=O)n2C [Sample 7, 1-(5-oxohexyl)-3-methyl-7-ethyl-xanthine]	two times as strong	250 to 500 mg/kg	–	–	–	1.5 min	+2.46	5.0 min	+5.17	0.40 min	+0.22	+0.10	-96%	-47%	-90%	-42%	-81%	8.2 min	+8.07	+0.20	Cerebral blood perfusion relative to comparison sample 8 ([7]; 1 mg/kg i.v.): about five times higher; Half-life (cerebral) relative to comparison sample 8 ([7]; 1 mg/kg i.v.): 1.5 times; Cerebral blood perfusion relative to comparison sample 8 ([7]; 5 mg/kg i.v.): about nine times higher; Half-life (cerebral) relative to comparison sample 8 ([7]; 5 mg/kg i.v.): more than three times longer; Muscular blood perfusion half-life ([8]; 2 mg/kg i.v.): 5.00 min; Muscular blood perfusion half-life ([8]; 5 mg/kg i.v.): 0.50 min; change in vivo at 3 mg/kg [1]: -28%; Broncholytic effect against histamine compared with sample 8 [2]: improved broncholytic effect against histamine; Minimum concentration for partial lysis ([4]; 24 hours incubation): 50 mmol; Minimum concentration for partial lysis ([4]; 48 hours incubation (bracket)): 25 mmol; solubility [6]: ~20 mg/mL (≈ 68.4 mM)
CCCCn1cnc2c1c(=O)n(CCCCC(C)=O)c(=O)n2C [Sample 5, 1-(5-Oxohexyl)-3-methyl-7-(n-butyl)-xanthine]	–	250 to 500 mg/kg	–	–	–	1.3 min	+2.50	1.3 min	+2.55	–	0	0	-100%	–	-69%	–	-100%	3.0 min	+2.40	0	Cerebral blood perfusion relative to comparison sample 8 ([7]; 1 mg/kg i.v.): nearly six times higher; Cerebral blood perfusion relative to comparison sample 8 ([7]; 5 mg/kg i.v.): about three times higher; change in vivo at 5 mg/kg ([1]; 5 mg/kg i.v.): -100%; change in vivo at 5 mg/kg ([2]; Cavia porcellus, iv, 2 min, 5 mg/kg i.v., 2 min. i.p.): -42%; Change of the bronchospasm in % against acrotonine ([3]; 5 mg/kg i.v.): -70%
CC(=O)CCCCn1cnc2c1c(=O)n(CC(C)C)c(=O)n2C [Sample 2, 1-isobutyl-3-methyl-7-(5-oxohexyl)-xanthine]	–	250 to 500 mg/kg	–	–	–	1.0 min	+1.85	–	–	–	0	–	-29%	-80%	-73%	-20%	-47%	14.3 min	+3.45	+0.05	Cerebral blood perfusion relative to comparison sample 8 ([7]; 5 mg/kg i.v.): about four times stronger; Half-life (cerebral) relative to comparison sample 8 ([7]; 5 mg/kg i.v.): more than five times longer; Cerebral blood perfusion compared with sample 8 (in words) ([7]; i.v.): stronger and longer cerebral blood perfusion; Muscular blood perfusion half-life ([8]; 5 mg/kg i.v.): 0.60 min
CC(=O)CCCCn1c(=O)c2c(ncn2CC(C)C)n(C)c1=O [Example 3, 1-(5-oxohexyl)-3-methyl7-isobutyl-xanthine]	–	–	over 10%	over 10%	over 10%	–	–	–	–	–	–	–	–	–	–	–	–	–	–	–	–
CCCn1cnc2c1c(=O)n(CCCCC(C)=O)c(=O)n2C [Sample 4, 1-(5-Oxohexyl)-3-methyl-7-propyl-xanthine]	two times as strong	–	over 10%	–	over 10%	4.0 min	+4.33	5.8 min	+6.33	3.70 min	+0.13	+0.07	-75%	-75%	-86%	-83%	-93%	14.7 min	+13.00	+0.08	Cerebral blood perfusion compared with sample 8 (in words) ([7]; i.v.): longer cerebral blood perfusion; Cerebral blood perfusion relative to comparison sample 8 ([7]; i.v., all dose values, corresponding dosages): more than 10 times; Muscular blood perfusion half-life ([8]; 2 mg/kg i.v.): 0.80 min; Muscular blood perfusion half-life ([8]; 5 mg/kg i.v.): 3.70 min; Muscular blood perfusion compared with sample 8 (in words) ([8]; i.v., corresponding dosages): stronger muscular blood perfusion; change in vivo at 3 mg/kg [1]: -40%; Broncholytic effect against histamine compared with sample 8 [2]: improved broncholytic effect against histamine; Inhibition of isoprenaline reaction in % ([9]; concentration 3 × 10^-5): 94%; Inhibition of isoprenaline reaction in % ([9]; concentration 3 × 10^-6): 2%; Inhibition of isoprenaline reaction in % ([9]; concentration 10^-4): 100%; Inhibition of isoprenaline reaction in % ([9]; concentration 10^-5): 20%; Minimum concentration for complete lysis ([4]; 24 hours incubation): 50 mmol; Minimum concentration for complete lysis ([4]; 48 hours incubation (bracket)): 25 mmol; LD50 ([5]; iv, read-out: Toxicity (LD50)): 107 mg/kg; LD50 ([5]; po, per os, read-out: Toxicity (LD50)): 860 mg/kg; solubility [6]: ~32 mg/mL (≈ 104 mM)

— patent publication US4289776A, “Xanthine derivatives” (Hoechst Aktiengesellschaft, priority 1973, dated 1981)
